Experimental data: patent publication US10201585B2, “Methods for treatment of atherosclerosis” (Stealth Peptides International, Inc., priority 2012, dated 2019)
Where “and” joins values, the source holds several entries; their conditions need not be identical. Equal values may be shown once.

Test system: Apoprotein E deficient mice
Test: Plasma lipid analysis using an autoanalyzer (TC, Trigs, PL, FC, CE by calculation)
Type: in vivo
Set-up: Plasma Trigs (triglycerides) / Trigs (plasma triglycerides): unit not given beside the values
Text: Apoprotein E deficient mice (Jackson Laboratories, 600 Main Street, Bar Harbor, Me.) were used in this study. The mice were male, 7-8 weeks of age, and between 18-20 g in weight. An initial total cholesterol measurement was made on 30 mice, and the mice were grouped into two groups of 15 to match the total cholesterol measurements. Both groups were fed a “western diet” (40 kcal % butterfat, 0.15% [wt/wt] cholesterol, Harlan Teklad diet TD-88137). Starting at t=0, the control group of 15 mice received vehicle only (phosphate buffered saline at pH 7.4), while the test group of 15 mice received aromatic-cationic peptide reconstituted in phosphate buffered saline. Body weights of the mice were recorded weekly, and mortality checks were performed daily.
The aromatic-cationic peptide D-Arg-2′6′-Dmt-Lys-Phe-NH2 (sterile lyophilized powder, reconstituted in phosphate buffered saline) was tested. For the 12-week study, test mice received a single, daily dose of the peptide, subcutaneously at 1 mg/kg. Control mice received a single daily dose of vehicle.
Blood was collected every four weeks (orbital plexis) under isoflurane anesthesia (3%) and blood lipids were determined. Plasma lipid analysis was conducted for both groups at t=0, 4, 6, 8, and 12 weeks. Plasma lipid analysis using an autoanalyzer included total cholesterol (TC), triglycerides (Trigs), phospholipids (PL), free cholesterol (FC), and cholesterol ester (CE, by calculation). Gel electrophoresis was used to measure levels of high-density lipoprotein cholesterol (HDL-C), low-density lipoprotein cholesterol (LDL-C), and very low-density lipoprotein cholesterol (VLDL-C).

[1] = Week 0 (start of treatment, baseline), individual mouse of peptide group (sample 16-30)
[2] = Week 4, individual test mice (sample # 16-30), listed as aromatic-cationic peptide
[3] = Week 8, individual test mice (sample # 16-30), listed as aromatic-cationic peptide
[4] = Week 12, AVE of test mice 16-30
[5] = Week 12, individual test mice (sample # 16-30), listed as aromatic-cationic peptide
[6] = treated versus vehicle at 4, 8 and 12 week time points

Substance: D-Arg-2′6′-Dmt-Lys-Phe-NH2
- Plasma TC (total cholesterol) [1]: 302 (2×) and 318 and 376 and 323 and 335 and 369 and 550 and 309 and 409 and 431 and 552 and 457 and 490 and 808
- Plasma Trigs (triglycerides) [1]: 75 and 88 (3×) and 117 and 96 and 71 and 138 and 167 and 136 and 151 and 191 and 188 and 154 and 353
- CE (plasma cholesterol ester) (Week 4, AVE of test mice 16-30): 610
- FC (plasma free cholesterol) (Week 4, AVE of test mice 16-30): 387
- PL (plasma phospholipid) (Week 4, AVE of test mice 16-30): 514
- TC (plasma total cholesterol) (Week 4, AVE of test mice 16-30): 997
- Trigs (plasma triglycerides) (Week 4, AVE of test mice 16-30): 58
- CE (plasma cholesterol ester) [2]: 491 and 580 and 622 and 731 and 626 and 417 and 574 and 660 and 515 and 536 and 630 and 761 and 581 and 732 and 701
- FC (plasma free cholesterol) [2]: 308 and 344 and 354 (2×) and 408 and 412 and 256 and 366 and 386 and 320 and 286 and 396 and 462 and 516 and 636
- PL (plasma phospholipid) [2]: 422 and 482 and 452 and 560 and 526 and 320 and 506 and 556 and 446 and 416 and 516 and 580 and 510 and 666 and 750
- TC (plasma total cholesterol) [2]: 799 and 924 and 976 and 1139 and 1038 and 673 and 940 and 1046 and 835 and 822 and 1026 and 1223 and 935 and 1248 and 1337
- Trigs (plasma triglycerides) [2]: 18 (2×) and 39 and 28 and 85 and 59 (2×) and 46 and 108 and 33 and 44 (2×) and 67 and 80 and 144
- CE (plasma cholesterol ester) (Week 8, AVE of test mice 16-30): 932
- FC (plasma free cholesterol) (Week 8, AVE of test mice 16-30): 350
- PL (plasma phospholipid) (Week 8, AVE of test mice 16-30): 493
- TC (plasma total cholesterol) (Week 8, AVE of test mice 16-30): 1282
- Trigs (plasma triglycerides) (Week 8, AVE of test mice 16-30): 57
- CE (plasma cholesterol ester) [3]: 940 and 710 and 1119 and 865 and 1153 and 653 and 714 and 1085 and 715 and 670 and 1073 and 1048 and 839 and 1130 and 1267
- FC (plasma free cholesterol) [3]: 322 and 294 (2×) and 386 and 318 and 392 and 290 and 388 and 308 (2×) and 286 and 362 and 366 and 404 and 530
- PL (plasma phospholipid) [3]: 416 and 456 and 474 and 448 and 516 (2×) and 424 and 480 and 488 and 436 and 440 and 556 and 470 and 540 and 728
- TC (plasma total cholesterol) [3]: 1262 and 1004 and 1505 and 1183 and 1545 and 943 and 1008 and 1473 and 1023 and 956 and 1435 and 1414 and 1147 and 1534 and 1797
- Trigs (plasma triglycerides) [3]: 34 (3×) and 31 (2×) and 51 (2×) and 48 and 53 and 43 and 75 and 63 and 39 and 67 and 195
- CE (plasma cholesterol ester) [4]: 681
- FC (plasma free cholesterol) [4]: 322
- PL (plasma phospholipid) [4]: 434
- TC (plasma total cholesterol) [4]: 1003
- Trigs (plasma triglycerides) [4]: 55
- CE (plasma cholesterol ester) [5]: 607 and 335 and 597 and 640 and 1002 and 477 and 445 and 476 and 675 and 687 and 960 and 869 and 339 and 904 and 1201
- FC (plasma free cholesterol) [5]: 291 and 205 and 287 and 296 and 418 and 242 and 229 and 269 and 315 and 312 and 419 and 386 and 219 and 413 and 535
- PL (plasma phospholipid) [5]: 366 and 318 and 320 and 432 and 491 and 321 and 363 and 394 and 374 and 423 and 536 and 521 and 340 and 575 and 741
- TC (plasma total cholesterol) [5]: 898 and 540 and 884 and 937 and 1420 and 719 and 674 and 745 and 990 and 999 and 1379 and 1255 and 558 and 1317 and 1736
- Trigs (plasma triglycerides) [5]: 27 and 49 and 10 and 37 (2×) and 18 and 39 (2×) and 13 and 25 and 74 and 89 and 97 and 112 and 158
- Plasma cholesterol ester, in words [6]: reduces
- Plasma free cholesterol, in words [6]: reduces
- Plasma phospholipid levels, in words [6]: reduces
- Plasma total cholesterol, in words [6]: reduces
- Plasma triglycerides, in words [6]: reduces
